Literature values as cited in PMC7155743 (The journal of physical chemistry. B, 2019).
Entries after “also recorded” stand apart in the source; their conditions may differ.

How the values were obtained:
[1] = aqueous solution
[2] = not given; remark: listed apart in the source

Row | Substance | appearance of peptide in water at 1 mg/mL | aggregation state by DOSY [1] | fibrillization after incubation in water for 3 h ([2]; water, 3 h) | solubility (qualitative) [2]
1 | D2Q10K2 [DQ10] | clear solutions | predominately monomeric; also recorded: predominantly monomeric |  | 
2 | D2Q10K2 [NDQ10] | clear solutions | predominately monomeric; also recorded: predominantly monomeric |  | 
3 | K2Q9PGQ4AQ4PGQ9PGQ9K2 [NDPGQ9A] |  |  | do not observe signs of NDPGQ9A fibrillization | 
4 | K2Q9PGQ4AQ4PGQ9PGQ9K2 [PGQ9A] |  |  |  | insoluble
